Test results: patent US5268389A, “Thiocarboxylate ester compounds compositions containing the same” (priority 1990, dated 1993)

Tests used:
[1] = test system: host DNA synthesis; conditions: administration of AZT; cited from earlier work
[2] = test system: HIV; assay: Reduction of HIV cytopathic effect, MT2V (MT2 cells, free virus); format: cell-based; conditions: Human immunodeficiency virus 1, read-out: Activity of Anti-HIV Compounds (EC50), MT2V
Procedure: The compounds of Examples were tested for anti-AIDS activity by subjecting them to standard National Cancer Institute ("NCI") in vitro screening procedures. In carrying out each test, two blanks were run. In the first blank, HIV and a culture of a standard human cell line were incubated together to measure the infectivity of the virus. The viability of the cells was measured after holding for six or seven days. In an "effective" test, most cells were infected before the holding period was complete.
In the second blank, the cell line culture and the compound being tested (but not virus) were incubated together to measure the toxicity of the drug to the cellline. The viability of the cells was measured as a function of concentration of the compound, after holding for seven days. […]
Finally, the protective effects of the test compounds were measured. Each cell culture and test compound were incubated with the virus and the viability of the cells was measured as a function of compound concentration after holding for six or seven days. […] At this point, cell viability increases steadily toward 100% unless the toxic effect of the compound (as measured in the second blank) takes effect. […] The therapeutic index TI50 is calculated as IC50/EC50.
Values of test compound concentrations required for between 20 and 50% reduction of the viral cytopathic effect can also be determined. […]

[3] = parameters: species or system mice; conditions: mouse, in vivo, iv, 10 mg/kg/day
Excerpt: Initial studies on the toxicity of the compound of Example 1 were made on mice.
for 5 days Per Day Test Toxicity

[4] = test system: various fungi; conditions: variety of crops; cited from earlier work

Structure (SMILES): Cc1cn([C@H]2C[C@H](N=[N+]=[N-])[C@@H](CO)O2)c(=O)[nH]c1=O [AZT, Azidothymidine]
- side effects [1]: severe side effects, e.g., anemia, granulocytopenia, and thrombocytopenia

Structure (SMILES): CC1=C(C(=O)Nc2ccc(Cl)c(C(=O)OC(C)C)c2)SCCO1 [Compound 1, 1-Methylethyl 2-chloro-5-[[(5,6-dihydro-2-methyl-1,4-oxathiin-3-yl)carbonyl]amino]benzoate]
- EC50 [2]: 2.6 µM
- Result, Toxicity [3]: No visible sign

Structure (SMILES): CC1=C(C(=O)Nc2ccccc2)SCCO1 [carboxin, 5,6-dihydro-2-methyl-N-phenyl-1,4-oxathiin-3-carboxamide]
- control of fungi by seed treatment [4]: providing control by seed treatment of various fungi
